Laboratory results from patent EP3478687B1 (Daewoong Pharmaceutical Co., Ltd., priority 2016, dated 2018).

Tests used:
[1] = biological target: T1, Recombinant purified human JAK3 (Homo sapiens, UniProt P52333); experiment: JAK3 kinase inhibitory activity, ADP-Glo kinase assay (Promega V9441); type: biochemical; conditions: for IC50: ATP 5 uM, 4 ng JAK3 per reaction, 1 hour 30 °C, chemiluminescence; for inhibition at 0.1 µM: @100nM compound
T1 construct: purchased Promega V9441
T1 sequence (P52333 1-1124): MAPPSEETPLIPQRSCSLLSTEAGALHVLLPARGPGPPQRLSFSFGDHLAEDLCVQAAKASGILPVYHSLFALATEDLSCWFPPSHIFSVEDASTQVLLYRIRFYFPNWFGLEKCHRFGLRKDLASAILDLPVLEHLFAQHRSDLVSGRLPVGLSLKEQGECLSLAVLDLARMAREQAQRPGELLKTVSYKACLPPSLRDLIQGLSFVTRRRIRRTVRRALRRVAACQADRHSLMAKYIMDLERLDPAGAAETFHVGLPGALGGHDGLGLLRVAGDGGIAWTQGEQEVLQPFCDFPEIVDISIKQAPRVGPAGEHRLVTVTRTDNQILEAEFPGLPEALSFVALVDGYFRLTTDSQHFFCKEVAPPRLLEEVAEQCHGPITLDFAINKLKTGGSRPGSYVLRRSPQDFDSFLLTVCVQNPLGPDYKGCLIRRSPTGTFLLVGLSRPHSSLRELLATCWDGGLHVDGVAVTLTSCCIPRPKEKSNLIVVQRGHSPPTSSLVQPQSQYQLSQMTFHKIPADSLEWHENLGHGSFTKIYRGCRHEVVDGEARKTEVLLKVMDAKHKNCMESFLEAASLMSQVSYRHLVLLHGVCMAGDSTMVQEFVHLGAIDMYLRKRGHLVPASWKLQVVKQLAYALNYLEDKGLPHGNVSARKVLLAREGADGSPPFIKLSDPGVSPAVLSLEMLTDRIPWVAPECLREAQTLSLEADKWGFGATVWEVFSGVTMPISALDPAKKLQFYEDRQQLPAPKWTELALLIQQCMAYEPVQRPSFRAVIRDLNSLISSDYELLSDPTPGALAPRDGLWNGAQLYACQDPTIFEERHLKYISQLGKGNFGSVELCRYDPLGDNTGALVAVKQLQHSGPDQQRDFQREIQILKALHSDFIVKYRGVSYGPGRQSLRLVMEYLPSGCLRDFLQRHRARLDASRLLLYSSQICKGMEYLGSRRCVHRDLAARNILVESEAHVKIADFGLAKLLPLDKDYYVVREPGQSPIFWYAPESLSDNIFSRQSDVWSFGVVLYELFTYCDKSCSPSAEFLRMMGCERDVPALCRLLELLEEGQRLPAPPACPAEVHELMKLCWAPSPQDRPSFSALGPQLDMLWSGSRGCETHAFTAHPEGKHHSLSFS
Description: (§1) JAK3 and BTK kinase inhibitory activities were measured for the compounds prepared in the above Examples through in vitro analysis on the ADP Glow (Glo) platform.
(§2) Specifically, the inhibitory activities of JAK3 and BTK kinase were measured using a JAK3 kinase assay kit (Promega, V9441) and a BTK kinase assay kit (Promega, V9071) which were purchased from Promega. Recombinant purified human JAK3 and BTK were diluted with 1 x kinase reaction buffer (JAK3: 40 mM Tris-Cl, pH 7.5, 20 mM MgCh, 0.1 mg/mL BSA and 50 uM DTT / BTK: 40 mM Tris-Cl, pH 7.5, 20 mM MgCl2, 0.1 mg/mL BSA, 2 mM MnCl2 and 50 uM DTT) and added to a 96 well plate (JAK3: final concentration of 4 ng per reaction/BTK: final concentration of 8 ng per reaction). The compounds were treated so as to be finally a 1% DMSO aqueous solution, and a substrate cocktail containing ATP (JAK3: final concentration of 5 uM / BTK: final concentration of 10 uM) and 0.2 µg/µL of Poly(Glu4, Tyr1) peptide (JAK3 and BTK final concentration) in the total 25 µL reactants was added to a 96-well plate to initiate enzymatic reaction. After incubation (30 °C) for 1 hour, equivalent volume (25 µL per reaction) of ADP Glo was added and incubated (30 °C) for 40 minutes at room temperature. Then, a kinase detection reagent (50 µL per reaction) was added and incubated (30 °C) for 30 minutes at room temperature. The kinase activity was measured by chemiluminescence according to the instructions of ADP Glo kinase assay kit, and the inhibitory activity of the compounds according to the present invention was calculated. For the analysis of the results of each compound, Microsoft Excel was used, and IC50 values were calculated by SigmaPlot software.

[2] = biological target: T2, Recombinant purified human BTK (Homo sapiens, UniProt Q06187); experiment: BTK kinase inhibitory activity, ADP-Glo kinase assay (Promega V9071); type: biochemical; conditions: for IC50: ATP 10 uM, 8 ng BTK per reaction, 1 hour 30 °C, chemiluminescence; for inhibition at 0.1 µM: @100nM compound; for inhibition at 1 µM: @1uM compound
T2 construct: purchased Promega V9071
T2 sequence (Q06187 whole entry): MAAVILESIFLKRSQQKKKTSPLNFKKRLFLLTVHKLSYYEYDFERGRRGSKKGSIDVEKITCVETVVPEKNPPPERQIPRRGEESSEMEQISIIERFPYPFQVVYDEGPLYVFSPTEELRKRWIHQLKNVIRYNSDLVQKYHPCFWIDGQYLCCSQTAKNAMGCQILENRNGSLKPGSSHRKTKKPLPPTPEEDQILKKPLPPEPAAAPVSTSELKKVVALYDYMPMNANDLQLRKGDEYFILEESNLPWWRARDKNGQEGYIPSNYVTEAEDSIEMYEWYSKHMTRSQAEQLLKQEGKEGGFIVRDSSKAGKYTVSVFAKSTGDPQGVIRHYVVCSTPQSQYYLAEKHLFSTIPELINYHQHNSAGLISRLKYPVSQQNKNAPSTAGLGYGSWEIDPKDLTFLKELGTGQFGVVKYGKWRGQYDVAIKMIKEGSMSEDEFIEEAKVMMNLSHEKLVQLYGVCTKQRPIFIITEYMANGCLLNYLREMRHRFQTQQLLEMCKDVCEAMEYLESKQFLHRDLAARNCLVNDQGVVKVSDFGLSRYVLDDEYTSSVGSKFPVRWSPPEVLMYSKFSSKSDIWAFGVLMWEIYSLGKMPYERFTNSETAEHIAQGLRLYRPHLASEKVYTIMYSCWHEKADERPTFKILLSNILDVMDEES
Description: as §1, §2

[3] = printed in the JAK3 IC50 column

SMILES | IC50 [1] [nM] | IC50 [2] [nM] | also measured
C=CC(=O)N1CCC[C@@H](Nc2nc(Nc3cn(C)nc3C)nc3[nH]ccc23)C1 [Example 22, (R)-1-(3-(2-(1,3-dimethyl-1H-pyrazol-4-ylamino)-7H-pyrrolo[2,3-d]pyrimidin-4-ylamino)piperidin-1-yl)prop-2-en-1-one] | – | – | inhibition at 0.1 µM [1, 3]: 17.3%; inhibition at 0.1 µM [2]: 8.9%
CC#CC(=O)N1CCC[C@@H](Nc2nc(Nc3cnn(CC(F)F)c3)nc3[nH]ccc23)C1 [Example 25, (R)-1-(3-(2-(1-(2,2-difluoroethyl)-1H-pyrazol-4-ylamino)-7H-pyrrolo[2,3-d]pyrimidin-4-ylamino)piperidin-1-yl)but-2-yn-1-one] | 11.2 | – | inhibition at 0.1 µM [2]: 39.3%
C=CC(=O)Nc1cccc(Nc2nc(N[C@@H]3CCCN(C(=O)CC#N)C3)c3cc[nH]c3n2)c1 [Example 26, (R)-N-(3-(4-(1-(2-cyanoacetyl)piperidin-3-ylamino)-7H-pyrrolo[2,3-d]pyrimidin-2-ylamino)phenyl)acrylamide] | 39.2 | – | inhibition at 0.1 µM [2]: 10.3%
C=CC(=O)N1CC[C@@H](C)[C@@H](N(C)c2nc(Nc3ccc(N4CCN(C)CC4)cc3)nc3[nH]ccc23)C1 [Example 27, 1-((3R,4R)-4-methyl-3-(methyl(2-(4-(4-methylpiperazin-1-yl)phenylamino)-7H-pyrrolo[2,3-d]pyrimidin-4-yl)amino)piperidin-1-yl)prop-2-en-1-one] | – | – | inhibition at 1 µM ([1]; @1uM compound, printed in the JAK3 IC50 column): 32.8%; inhibition at 1 µM [2]: 48%
C[C@@H]1CCN(C(=O)CC#N)C[C@@H]1N(C)c1nc(Nc2ccc(N3CCN(C)CC3)cc2)nc2[nH]ccc12 [Example 28, 3-((3R,4R)-4-methyl-3-(methyl(2-(4-(4-methylpiperazin-1-yl)phenylamino)-7H-pyrrolo[2,3-d]pyrimidin-4-yl)amino)piperidin-1-yl)-3-oxopropanenitrile] | 186 | – | inhibition at 1 µM [2]: 3.3%
C=CC(=O)NC1CCCC(Nc2nc(Nc3ccc(N4CCN(C)CC4)cc3)nc3[nH]ccc23)C1 (stereo not shown) [Example 29, N-(3-(2-(4-(4-methylpiperazin-1-yl)phenylamino)-7H-pyrrolo[2,3-d]pyrimidin-4-ylamino)cyclohexyl)acrylamide] | 66.2 | – | inhibition at 1 µM [2]: 47.1%
C=CC(=O)N1CCC[C@@H](Nc2nc(Nc3ccc(N4CCN(C)CC4)cc3)nc3[nH]ncc23)C1 [Example 30, (R)-1-(3-(6-(4-(4-methylpiperazin-1-yl)phenylamino)-1H-pyrazolo [3,4-d]pyrimidin-4-ylamino)piperidin-1-yl)prop-2-en-1-one] | – | 6 | inhibition at 0.1 µM [1, 3]: 52.6%
C=CC(=O)N1CCC[C@@H](Nc2nc(Nc3cnn(CC(F)F)c3)nc3[nH]ncc23)C1 [Example 31, (R)-1-(3-(6-(1-(2,2-difluoroethyl)-1H-pyrazol-4-ylamino)-1H-pyrazolo [3,4-d]pyrimidin-4-ylamino)piperidin-1-yl)prop-2-en-1-one] | 3.4 | 2.2 | –
C=CC(=O)N1CCC[C@@H](Nc2nc(Nc3cnn(C)c3)nc3[nH]ncc23)C1 [Example 32, (R)-1-(3-(6-(1-methyl-1H-pyrazol-4-ylamino)-1H-pyrazolo[3,4-d]pyrimidin-4-ylamino)piperidin-1-yl)prop-2-en-1-one] | 10.7 | 2.8 | –
C=CC(=O)N1CCC[C@@H](Nc2nc(Nc3cnn(CC)c3)nc3[nH]ncc23)C1 [Example 33, (R)-1-(3-(6-(1-ethyl-1H-pyrazol-4-ylamino)-1H-pyrazolo[3,4-d]pyrimidin-4-ylamino)piperidin-1-yl)prop-2-en-1-one] | 4.9 | 1.6 | –
C=CC(=O)N1CCC[C@@H](Nc2nc(Nc3cnn(C(F)F)c3)nc3[nH]ncc23)C1 [Example 34, (R)-1-(3-(6-(1-(difluoromethyl)-1H-pyrazol-4-ylamino)-1H-pyrazolo [3,4-d]pyrimidin-4-ylamino)piperidin-1-yl)prop-2-en-1-one] | 3.4 | 2.1 | –
C=CC(=O)N1CCC[C@@H](Nc2nc(Nc3cnn(CC(=O)NC)c3)nc3[nH]ncc23)C1 [Example 35, (R)-2-(4-(4-(1-acryloylpiperidin-3-ylamino)-1H-pyrazolo[3,4-d]pyrimidin-6-ylamino)-1H-pyrazol-1-yl)-N-methylacetamide] | 5.2 | 2.1 | –

The next lines start with results.

IC50 [1] [nM] | IC50 [2] [nM] | SMILES | also measured
0.4 | 4.5 | C=CC(=O)N1CCC[C@@H](Nc2nc(Nc3cnn(CC)c3)nc3[nH]ccc23)C1 [Example 21, (R)-1-(3-(2-(1-ethyl-1H-pyrazol-4-ylamino)-7H-pyrrolo[2,3-d]pyrimidin-4-ylamino)piperidin-1-yl)prop-2-en-1-one] | –
0.9 | 13.9 | C=CC(=O)N1CCC[C@@H](Nc2nc(Nc3cnoc3)nc3[nH]ccc23)C1 [Example 23, (R)-1-(3-(2-(isoxazol-4-ylamino)-7H-pyrrolo[2,3-d]pyrimidin-4-ylamino)piperidin-1-yl)prop-2-en-1-one] | –
0.4 | 15.3 | C=CC(=O)N1CCC[C@@H](Nc2nc(Nc3cnn(CC(=O)NC)c3)nc3[nH]ccc23)C1 [Example 24, (R)-2-(4-(4-(1-acryloylpiperidin-3-ylamino)-7H-pyrrolo[2,3-d]pyrimidin-2-ylamino)-1H-pyrazol-1-yl)-N-methylacetamide] | –
1.1 | 16.5 | C=CC(=O)N1CCC[C@@H](Nc2nc(Nc3ccc(N4CCN(C)CC4)cc3)nc3[nH]cc(Cl)c23)C1 [Example 36, (R)-1-(3-(5-chloro-2-(4-(4-methylpiperazin-1-yl)phenylamino)-7H-pyrrolo [2,3-d]pyrimidin-4-ylamino)piperidin-1-yl)prop-2-en-1-one] | –
0.1 | 2.5 | C=CC(=O)N1CCC[C@@H](Nc2nc(Nc3cnn(CC)c3)nc3[nH]cc(Cl)c23)C1 [Example 37, (R)-1-(3-(5-chloro-2-(1-ethyl-1H-pyrazol-4-ylamino)-7H-pyrrolo[2,3-d]pyrimidin-4-ylamino)piperidin-1-yl)prop-2-en-1-one] | –
0.1 | 4.3 | C=CC(=O)N1CCC[C@@H](Nc2nc(Nc3cnn(C(F)F)c3)nc3[nH]cc(Cl)c23)C1 [Example 38, (R)-1-(3-(5-chloro-2-(1-(difluoromethyl)-1H-pyrazol-4-ylamino)-7H-pyrrolo[2,3-d]pyrimidin-4-ylamino)piperidin-1-yl)prop-2-en-1-one] | –
0.1 | 1.9 | C=CC(=O)N1CCC[C@@H](Nc2nc(Nc3cnn(CC(F)F)c3)nc3[nH]cc(Cl)c23)C1 [Example 39, (R)-1-(3-(5-chloro-2-(1-(2,2-difluoroethyl)-1H-pyrazol-4-ylamino)-7H-pyrrolo[2,3-d]pyrimidin-4-ylamino)piperidin-1-yl)prop-2-en-1-one] | –
0.2 | 1.8 | C=CC(=O)N1CCC[C@@H](Nc2nc(Nc3cnn(CCN4CCOCC4)c3)nc3[nH]cc(Cl)c23)C1 [Example 40, (R)-1-(3-(5-chloro-2-(1-(2-morpholinoethyl)-1H-pyrazol-4-ylamino)-7H-pyrrolo [2,3-d]pyrimidin-4-ylamino)piperidin-1-yl)prop-2-en-1-one] | –
